In patent US20040048262A1, “Methods for determining the bilogical effects of compounds on gene expression” (priority 2003, published 2004):

Tested on: PC12 cells
Experiment: Transcription factor DNA-binding activity profile, nuclear extracts of NGF-treated PC12 cells, random 16-mer library (FIG. 2)
Type: cell-based
Conditions: 200 ng/ml NGF-beta, 5 hr, vs untreated
Source text: FIG. 2 is a bar graph showing the effects of nerve growth factor (NGF) treatment on transcription factor DNA-binding activities in PC12 cells. The identity of the specific transcription factors whose binding activity is being detected are listed on the X-axis. The level of DNA binding activity for each individual transcription factor is depicted as a percentage of the total number of DNA fragments sequenced from the “bound” fraction of the DNA library used in the binding reactions and containing the cognate site for that particular protein (shown as a numerical value on the Y-axis). The level of binding activities for all the proteins detected as a result of their cognate binding sites being found in the “bound” fraction of the DNA library constitutes the transcription factor activity profiles for PC12 cells and PC12 cells following NGF treatment. The profiles generated provide a useful indicator of the mechanism of action of the compound being used for the cell treatrment. For example, if the mechanism of action of NGF was to increase the expression of a particular cell surface receptor, then one would expect to see altered levels of binding activities for those transcription factors known to regulate the expression of the gene that encodes that particular receptor in the NGF-treated sample. If one did indeed see altered binding activity levels of factors known to regulate a particular receptor gene or set of genes, then one could immediately assay for those changes in gene expression as a result of inference from the transcription factor activity profile.
In a specific example, PC12 cells were grown in high glucose DMEM containing 10% horse serum and 5% fetal calf serum. For differentiation, cells were transferred to serum-free medium containing N-2 Supplement (Life Technologies) and 200 ng/ml Nerve Growth Factor-beta (Sigma). Cells were harvested after 5 hr and nuclear extracts were prepared as described above. A positive response of the PC12 cells to NGF was monitored by EMSA of AP-1 activity.
In this example, nuclear extracts were incubated with a random 16-mer library and the DNA present in specific protein/DNA complexes was isolated and sequenced. Known transcription factor binding sites present in the DNA sequences were counted as described in Example 1 and the data generated are presented in FIG. 2 in the same mainer as in Example 2. Thus, the bars indicate the percentage of DNA fragments containing selected cis sites that were isolated in binding reactions containing nuclear extracts from either untreated (white bars) or NGF-treated (black bars) PC12 cells. It can be seen that NGF-treatment leads to an increase in binding activity for AP 1, ATF, TCF11 (among others), while for example E2F and RFX1 activities are reduced after NGF treatment.

Substance: NGF: Nerve Growth Factor-beta (Sigma)
- change in E2F activity after NGF treatment: reduced
- change in RFX1 activity after NGF treatment: reduced
- change in binding activity for AP 1 after NGF treatment: increase
- change in binding activity for ATF after NGF treatment: increase
- change in binding activity for TCF11 after NGF treatment: increase
